Test results from ChEMBL document CHEMBL5131376, “Kinase Inhibitors as Underexplored Antiviral Agents” (J Med Chem, 2022).

Legend:
[1] = system: Middle East respiratory syndrome-related coronavirus; experiment: microbe, parasite or virus in culture; details: Vero
[2] = target: BMP-2-inducible protein kinase (Homo sapiens, UniProt Q9NSY1); experiment: Binding affinity to BIKE (unknown origin) assessed as dissociation constant
[3] = Inhibition of PDGFR (unknown origin); set-up: species or system Homo sapiens
[4] = system: Zika virus; experiment: Antiviral activity against ZIKV infected in human SNB-19 cells; type: functional, organism-based
[5] = target: Cyclin-dependent kinase 2 (Homo sapiens, UniProt P24941); experiment: Inhibition of CDK2 (unknown origin)
[6] = system: Middle East respiratory syndrome-related coronavirus; experiment: Antiviral activity against MERS-CoV infected in human HUh-7 cells at 0.1 to 10 uM; type: functional; details: dose 0.1-10 µM
[7] = target: Cyclin-G-associated kinase (Homo sapiens, UniProt O14976); experiment: Binding affinity to GAK (unknown origin) assessed as dissociation constant
Cyclin-G-associated kinase, sequence (O14976 whole entry): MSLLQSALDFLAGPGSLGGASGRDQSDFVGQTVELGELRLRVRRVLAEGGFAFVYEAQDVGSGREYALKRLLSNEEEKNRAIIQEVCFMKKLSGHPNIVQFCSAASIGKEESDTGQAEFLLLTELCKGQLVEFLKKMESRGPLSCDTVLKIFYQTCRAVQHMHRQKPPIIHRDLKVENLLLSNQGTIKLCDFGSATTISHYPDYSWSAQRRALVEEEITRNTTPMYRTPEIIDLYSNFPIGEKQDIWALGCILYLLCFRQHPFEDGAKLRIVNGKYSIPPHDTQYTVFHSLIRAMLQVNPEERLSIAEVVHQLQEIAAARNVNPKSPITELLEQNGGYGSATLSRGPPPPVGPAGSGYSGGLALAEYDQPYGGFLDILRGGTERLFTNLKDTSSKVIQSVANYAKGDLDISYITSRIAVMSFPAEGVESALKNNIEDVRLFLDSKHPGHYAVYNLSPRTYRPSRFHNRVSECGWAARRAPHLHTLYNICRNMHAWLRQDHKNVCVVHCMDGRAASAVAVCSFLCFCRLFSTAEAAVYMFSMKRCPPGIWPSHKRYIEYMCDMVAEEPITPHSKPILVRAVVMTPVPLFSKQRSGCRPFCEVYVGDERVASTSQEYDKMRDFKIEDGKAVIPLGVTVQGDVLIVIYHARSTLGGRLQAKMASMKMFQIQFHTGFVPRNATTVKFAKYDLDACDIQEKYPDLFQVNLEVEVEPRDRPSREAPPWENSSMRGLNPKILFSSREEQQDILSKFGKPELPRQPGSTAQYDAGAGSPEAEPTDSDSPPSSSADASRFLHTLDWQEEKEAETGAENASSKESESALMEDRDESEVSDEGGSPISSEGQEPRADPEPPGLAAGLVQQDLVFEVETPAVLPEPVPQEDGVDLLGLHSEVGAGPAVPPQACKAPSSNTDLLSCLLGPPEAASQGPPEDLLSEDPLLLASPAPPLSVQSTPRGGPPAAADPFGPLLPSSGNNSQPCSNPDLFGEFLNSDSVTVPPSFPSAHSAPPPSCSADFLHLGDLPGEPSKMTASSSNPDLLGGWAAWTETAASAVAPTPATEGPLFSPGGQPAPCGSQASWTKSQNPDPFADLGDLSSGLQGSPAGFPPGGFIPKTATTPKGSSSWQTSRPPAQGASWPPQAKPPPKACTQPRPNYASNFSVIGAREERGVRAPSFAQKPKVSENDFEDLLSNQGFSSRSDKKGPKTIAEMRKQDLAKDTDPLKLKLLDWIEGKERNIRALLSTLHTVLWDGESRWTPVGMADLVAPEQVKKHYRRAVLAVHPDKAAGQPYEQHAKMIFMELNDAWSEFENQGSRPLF

[8] = target: AP2-associated protein kinase 1 (Homo sapiens, UniProt Q2M2I8); experiment: Binding affinity to AAK1 (unknown origin) assessed as dissociation constant
AP2-associated protein kinase 1, sequence (Q2M2I8 whole entry): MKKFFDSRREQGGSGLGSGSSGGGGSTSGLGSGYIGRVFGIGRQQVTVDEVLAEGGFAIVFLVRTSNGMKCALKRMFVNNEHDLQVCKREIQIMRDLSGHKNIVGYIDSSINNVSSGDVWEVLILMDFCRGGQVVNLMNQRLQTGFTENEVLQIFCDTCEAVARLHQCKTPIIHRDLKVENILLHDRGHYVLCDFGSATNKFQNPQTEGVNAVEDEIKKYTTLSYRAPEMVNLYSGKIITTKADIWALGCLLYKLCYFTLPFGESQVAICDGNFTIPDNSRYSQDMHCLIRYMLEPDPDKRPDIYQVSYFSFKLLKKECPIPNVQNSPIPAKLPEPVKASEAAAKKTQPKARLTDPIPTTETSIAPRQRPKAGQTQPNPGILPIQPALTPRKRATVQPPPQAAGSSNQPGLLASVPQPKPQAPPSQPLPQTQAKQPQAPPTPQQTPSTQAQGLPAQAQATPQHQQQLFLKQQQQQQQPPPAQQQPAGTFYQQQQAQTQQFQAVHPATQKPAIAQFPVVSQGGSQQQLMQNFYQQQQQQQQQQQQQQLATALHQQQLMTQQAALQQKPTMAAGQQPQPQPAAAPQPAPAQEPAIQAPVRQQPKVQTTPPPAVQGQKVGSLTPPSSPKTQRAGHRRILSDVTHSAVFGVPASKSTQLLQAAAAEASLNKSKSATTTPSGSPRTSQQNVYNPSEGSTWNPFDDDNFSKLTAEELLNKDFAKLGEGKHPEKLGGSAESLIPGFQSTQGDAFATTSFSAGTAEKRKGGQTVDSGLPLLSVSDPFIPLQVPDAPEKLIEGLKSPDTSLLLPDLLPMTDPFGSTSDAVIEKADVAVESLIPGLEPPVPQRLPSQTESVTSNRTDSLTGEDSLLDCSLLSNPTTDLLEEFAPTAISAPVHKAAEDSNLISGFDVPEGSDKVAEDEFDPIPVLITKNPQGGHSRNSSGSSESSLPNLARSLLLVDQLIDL

[9] = target: High affinity nerve growth factor receptor (Homo sapiens, UniProt P04629); experiment: Inhibition of TrKA (unknown origin)
High affinity nerve growth factor receptor, sequence (P04629 whole entry): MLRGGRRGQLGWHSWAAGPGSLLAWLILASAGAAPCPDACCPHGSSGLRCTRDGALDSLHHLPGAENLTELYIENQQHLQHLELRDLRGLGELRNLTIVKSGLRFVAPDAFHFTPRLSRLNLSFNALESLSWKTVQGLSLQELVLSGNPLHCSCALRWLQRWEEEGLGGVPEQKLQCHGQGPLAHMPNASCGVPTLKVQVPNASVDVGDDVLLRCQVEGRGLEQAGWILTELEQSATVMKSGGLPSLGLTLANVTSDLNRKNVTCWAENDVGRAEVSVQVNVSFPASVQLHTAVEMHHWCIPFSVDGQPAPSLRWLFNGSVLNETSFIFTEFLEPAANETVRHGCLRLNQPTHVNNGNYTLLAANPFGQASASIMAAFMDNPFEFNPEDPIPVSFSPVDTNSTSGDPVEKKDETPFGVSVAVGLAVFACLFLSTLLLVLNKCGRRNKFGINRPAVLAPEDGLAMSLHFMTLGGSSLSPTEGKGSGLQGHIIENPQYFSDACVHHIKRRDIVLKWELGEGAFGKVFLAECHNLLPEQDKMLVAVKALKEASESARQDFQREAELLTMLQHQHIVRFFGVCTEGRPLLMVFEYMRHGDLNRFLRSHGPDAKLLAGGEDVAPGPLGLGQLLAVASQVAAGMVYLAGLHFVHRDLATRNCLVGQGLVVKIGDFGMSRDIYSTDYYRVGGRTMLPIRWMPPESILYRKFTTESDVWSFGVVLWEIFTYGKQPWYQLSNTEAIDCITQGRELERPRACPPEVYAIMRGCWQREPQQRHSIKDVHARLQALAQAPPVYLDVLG

[10] = system: SARS-CoV; experiment: microbe, parasite or virus in culture; details: Severe acute respiratory syndrome-related coronavirus, Vero C1008, 50 h
[11] = system: Human alphaherpesvirus 1; experiment: Antiviral activity against HSV-1 infected in African green monkey Vero cells assessed as inhibition of viral replication; type: functional, organism-based; details: Human alphaherpesvirus 1, Vero
[12] = target: 1-phosphatidylinositol 3-phosphate 5-kinase (Homo sapiens, UniProt Q9Y2I7); experiment: Inhibition of PIKFYVE (unknown origin)
[13] = target: Tyrosine-protein kinase ABL1 (Homo sapiens, UniProt P00519)
[14] = system: dengue virus type 1; experiment: Antiviral activity against DENV 1 infected in hamster BHK-21 cells assessed as focus formation measured after 5 days; type: functional, organism-based; details: BHK-21, 120 h
[15] = system: dengue virus type 2; experiment: Antiviral activity against DENV 2 infected in african green monkey Vero cells assessed as focus formation measured after 6 days; type: functional, organism-based; details: 144 h
[16] = system: dengue virus type 3; experiment: Antiviral activity against DENV 3 infected in african green monkey Vero cells assessed as focus formation measured after 6 days; type: functional, organism-based; details: 144 h
[17] = system: dengue virus type 4; experiment: Antiviral activity against DENV 4 infected in african green monkey Vero cells assessed as focus formation measured after 6 days; type: functional, organism-based; details: 144 h
[18] = system: Influenza A virus; experiment: Antiviral activity against Influenza A virus (A/WSN/33 (H1N1)); type: functional, organism-based
[19] = system: Influenza B virus; experiment: Antiviral activity against Influenza B virus B/Lee/40; type: functional, organism-based
[20] = system: Influenza A virus; experiment: Antiviral activity against Influenza A virus (A/Udorn/72 (H3N2)); type: functional, organism-based
[21] = system: Influenza A virus; experiment: Antiviral activity against Influenza A virus A/Equine/2/MIAMI/1/63 (H3N8)); type: functional, organism-based
[22] = system: Influenza A virus; experiment: Antiviral activity against Influenza A virus (A/PR/8/34 (H1N1)); type: functional, organism-based
[23] = system: Influenza B virus; experiment: Antiviral activity against Influenza B virus B/MD/59; type: functional, organism-based
[24] = system: Parainfluenza virus 5; experiment: Antiviral activity against PIV5; type: functional, organism-based
[25] = Binding affinity to AMPK (unknown origin); set-up: species or system Homo sapiens
[26] = Inhibition of MEK (unknown origin); set-up: species or system Homo sapiens
[27] = target: Dual specificity mitogen-activated protein kinase kinase 1 (Homo sapiens, UniProt Q02750)
Dual specificity mitogen-activated protein kinase kinase 1, sequence (Q02750 whole entry): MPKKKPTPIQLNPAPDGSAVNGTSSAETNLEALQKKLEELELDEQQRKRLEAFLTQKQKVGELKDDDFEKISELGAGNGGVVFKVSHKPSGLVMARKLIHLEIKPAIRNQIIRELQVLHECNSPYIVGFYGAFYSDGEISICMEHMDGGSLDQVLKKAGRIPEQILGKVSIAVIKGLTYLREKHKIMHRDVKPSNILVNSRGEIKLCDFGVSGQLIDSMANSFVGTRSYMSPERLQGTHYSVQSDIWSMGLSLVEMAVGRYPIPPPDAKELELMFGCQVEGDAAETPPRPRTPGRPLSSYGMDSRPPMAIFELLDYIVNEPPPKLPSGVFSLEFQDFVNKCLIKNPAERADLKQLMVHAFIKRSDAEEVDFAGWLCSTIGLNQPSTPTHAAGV

[28] = Cytotoxicity against human […] cells; type: toxicity, cell-based; details: U2OS cells
[29] = system: Human immunodeficiency virus 1; experiment: Antiviral activity against HIV-1 in U87/CD4/CCR5 cells expressing HIV-1-envelope-protein assessed as decreased cell-cell fusion at 300 nM; type: functional; set-up: scale not given: the % may be the effect or the level left
[30] = system: SARS-CoV-2; experiment: Antiviral activity against SARS-CoV-2 infected in african green monkey Vero cells incubated for 72 hrs by celltitre-glo luminescent assay; type: functional, organism-based; details: Severe acute respiratory syndrome coronavirus 2, Vero
[31] = Cytotoxicity against african green monkey Vero cells; type: toxicity, cell-based; details: chlorocebus sabaeus

BMP-2-inducible protein kinase, sequence (Q9NSY1 whole entry): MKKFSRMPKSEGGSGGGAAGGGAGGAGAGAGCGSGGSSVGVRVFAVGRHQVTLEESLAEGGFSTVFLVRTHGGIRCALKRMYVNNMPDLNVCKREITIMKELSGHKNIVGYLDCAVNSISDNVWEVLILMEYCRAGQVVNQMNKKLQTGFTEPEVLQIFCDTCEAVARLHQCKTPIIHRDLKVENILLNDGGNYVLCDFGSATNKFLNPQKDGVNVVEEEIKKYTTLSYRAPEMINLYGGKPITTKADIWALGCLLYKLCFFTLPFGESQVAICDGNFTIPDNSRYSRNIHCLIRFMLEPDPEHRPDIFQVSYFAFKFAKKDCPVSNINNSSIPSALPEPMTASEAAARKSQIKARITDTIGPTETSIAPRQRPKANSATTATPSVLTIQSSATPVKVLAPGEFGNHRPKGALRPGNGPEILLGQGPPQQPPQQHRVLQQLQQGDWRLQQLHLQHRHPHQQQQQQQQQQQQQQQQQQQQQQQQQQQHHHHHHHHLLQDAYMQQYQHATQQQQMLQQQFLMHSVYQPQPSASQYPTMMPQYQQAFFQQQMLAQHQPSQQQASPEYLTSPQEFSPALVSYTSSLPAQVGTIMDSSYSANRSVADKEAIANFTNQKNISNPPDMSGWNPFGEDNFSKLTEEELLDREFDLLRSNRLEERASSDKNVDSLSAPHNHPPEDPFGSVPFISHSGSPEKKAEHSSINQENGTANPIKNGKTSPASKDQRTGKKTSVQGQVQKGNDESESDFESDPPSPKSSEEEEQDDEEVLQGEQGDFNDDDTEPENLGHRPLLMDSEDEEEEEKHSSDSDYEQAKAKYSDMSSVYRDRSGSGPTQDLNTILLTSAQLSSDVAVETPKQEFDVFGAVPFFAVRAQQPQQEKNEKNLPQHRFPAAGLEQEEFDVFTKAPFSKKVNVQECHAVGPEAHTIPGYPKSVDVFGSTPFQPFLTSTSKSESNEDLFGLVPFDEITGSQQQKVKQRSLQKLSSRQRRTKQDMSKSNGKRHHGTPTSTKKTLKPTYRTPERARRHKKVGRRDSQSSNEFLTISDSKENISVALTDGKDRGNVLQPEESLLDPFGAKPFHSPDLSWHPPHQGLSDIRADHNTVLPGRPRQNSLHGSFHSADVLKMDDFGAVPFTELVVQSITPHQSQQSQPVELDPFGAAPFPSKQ

## CN1CCN(CCOc2cc(OC3CCOCC3)c3c(Nc4c(Cl)ccc5c4OCO5)ncnc3c2)CC1 [SARACATINIB]
[1]
  EC50: 2.9 µM

## COc1cc(O)c2c(c1)/C=C/C[C@H](O)[C@H](O)C(=O)/C=C\C[C@H](C)OC2=O
[2]
  Kd: 0.0038 µM

## CC(C)(C)c1cc(C=C(C#N)C#N)cc(C(C)(C)C)c1O [TYRPHOSTIN A9]
[3]
  IC50: 0.5 µM

## CC(=O)Nc1ccc(C(C)C(=O)Nc2ncc(C(C)C)s2)cc1 (configuration not stated)
[4]
  IC50: 1.72 µM
[5]
  IC50: 0.031 µM

## Cn1cnc2c(F)c(Nc3ccc(Br)cc3Cl)c(C(=O)NOCCO)cc21 [SELUMETINIB]
[6]
  Activity: >95%

## COc1cc(N(C)c2ccnc3ccc(C(F)(F)F)cc23)cc(OC)c1OC
[7]
  Kd: 2.5 µM

## COc1ccccc1-c1cnc2ccc(N3CC[C@H](N(C)C(=O)C(C)C)C3)nn12
[8]
  Kd: 0.001 µM

## CC(C)(C)c1cc(/C=C(\C#N)C(N)=S)cc(C(C)(C)C)c1O [TYRPHOSTIN AG 879]
[9]
  IC50: 10 µM

## Cc1ccc(NC(=O)c2ccc(CN3CCN(C)CC3)cc2)cc1Nc1nccc(-c2cccnc2)n1 [IMATINIB]
[10]
  EC50: 2.1 µM

## Fc1ccc(N2CCCCC2)c(NC(=S)c2ccncc2)c1
[11]
  EC50: 0.69 µM

## Ic1cccc(/C=N/Nc2nc(N3CCOCC3)nc(N(c3ccccc3)c3ccccc3)n2)c1
[12]
  IC50: 0.009 µM

## CC(=O)c1cccc(-c2cc(Nc3ccc(OC(F)(F)F)cc3)ncn2)c1
[13]
  IC50: 0.138 µM
[14]
  IC50: 5 µM
[15]
  IC50: 5 µM
[16]
  IC50: 5 µM
[17]
  IC50: 5 µM

## Cc1cn(-c2cc(NC(=O)c3ccc(C)c(Nc4nccc(-c5cccnc5)n4)c3)cc(C(F)(F)F)c2)cn1 [NILOTINIB]
[10]
  EC50: 2.1 µM

## CC(=O)Nc1cccc(-n2c(=O)n(C3CC3)c(=O)c3c(Nc4ccc(I)cc4F)n(C)c(=O)c(C)c32)c1 [TRAMETINIB]
[6]
  Activity: >95%

## CNC(=O)c1cc(Oc2ccc(NC(=O)Nc3ccc(Cl)c(C(F)(F)F)c3)cc2)ccn1 [SORAFENIB]
[3]
  IC50: 0.02 µM

## COc1ccc(Cc2nccc3cc(OC)c(OC)cc23)cc1OC [PAPAVERINE]
[18]
  IC50: 2 µM
[19]
  IC50: 2 µM
[20]
  IC50: 2 µM
[21]
  IC50: 2 µM
[22]
  IC50: 2 µM
[23]
  IC50: 2 µM
[24]
  IC50: 2 µM

## c1cc(-c2cnn3cc(-c4ccc(OCCN5CCCCC5)cc4)cnc23)ccn1 [DORSOMORPHIN]
[25]
  IC50: 0.109 µM

## COc1ccc(-c2cnc3[nH]cc(C#Cc4cccnc4)c3c2)cc1OC
[8]
  Kd: 0.004 µM

## O=C(O)c1ccc(F)c(F)c1Nc1ccc(I)cc1Cl [ZAPNOMETINIB]
[26]
  IC50: 0.00573 µM
[27]
  IC50: 0.00573 µM

## C1=Nc2ccccc2/C1=C/NNc1nc(Nc2ccccc2)nc(N2CCOCC2)n1
[28]
  IC50: 0.014 µM

## Cc1nc(Nc2ncc(C(=O)Nc3c(C)cccc3Cl)s2)cc(N2CCN(CCO)CC2)n1.O [DASATINIB]
[29]
  Activity: 93%

## CCN1CCN(Cc2ccc(Nc3ncc(F)c(-c4cc(F)c5nc(C)n(C(C)C)c5c4)n3)nc2)CC1 [ABEMACICLIB]
[30]
  IC50: 6600 µM
[31]
  CC50: > 50 µM

## COc1ccccc1-c1cnc2ccc(N3CC[C@H](N(C)C(=O)C(C)(C)C)C3)nn12
[8]
  Kd: 0.001 µM

## CC(C)C(=O)Nc1n[nH]c2cc(-c3cccc(NS(=O)(=O)C4CC4)c3)ccc12
[8]
  Kd: 18 µM
